Data as given in ChEMBL document CHEMBL1201862, “PubChem BioAssay data set” (2004).
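A five-concentration, 48-hour dose response in 96-well plates underlies each endpoint, interpolated linearly between surrounding concentrations. Here, GI50 denotes the concentration required for 50% inhibition of growth.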 The source made the active and inactive calls. Cut-off read from the data, not from the text of the source: active = GI50 up to about 1.1 µM and inactive = higher.

Columns and labels:
Assay in all cases: DTP human tumour cell line panel, 48 h
[1] = system: A498
[2] = system: CCRF-CEM
[3] = system: COLO 205
[4] = system: HCC 2998
[5] = system: HCT-15
[6] = system: HOP-18
[7] = system: HOP-62
[8] = system: K562
[9] = system: MOLT-4
[10] = system: Malme-3M
[11] = system: OVCAR-3
[12] = system: SF-295
[13] = system: SN12C
[14] = system: TK-10
[15] = system: UACC-257
[16] = system: NCI-H522
[17] = system: SK-MEL-5
[18] = system: MCF7
[19] = system: MDA-N
[20] = system: NCI/ADR-RES

Compound	GI50 [1]	GI50 [2]	GI50 [3]	GI50 [4]	GI50 [5] [µM]	GI50 [6]	GI50 [7]	GI50 [8]	GI50 [9]	GI50 [10]	GI50 [11]	GI50 [12]	GI50 [13]	GI50 [14]	GI50 [15]	GI50 [16]	GI50 [17]	GI50 [18]	GI50 [19]	GI50 [20]
CN1N=C(Nc2ccccc2)Sc2c1cnn(-c1ccccc1)c2=O	> 100 µM (inactive)	> 100 µM (inactive)	> 100 µM (inactive)	> 100 µM (inactive)	> 100	20 µM (inactive)	> 100 µM (inactive)	30.6 µM (inactive)	> 100 µM (inactive)	> 100 µM (inactive)	28.1 µM (inactive)	73.3 µM (inactive)	> 100 µM (inactive)	> 100 µM (inactive)	> 100 µM (inactive)	–	–	–	–	–
Cc1ccc(C)c(NC(=O)CC2SC(Nc3ccccc3Cl)=NC2=O)c1 (stereo not given)	> 100 µM (inactive)	22.1 µM (inactive)	> 100 µM (inactive)	> 100 µM (inactive)	> 100	> 100 µM (inactive)	> 100 µM (inactive)	–	81.5 µM (inactive)	> 100 µM (inactive)	> 100 µM (inactive)	72.6 µM (inactive)	> 100 µM (inactive)	> 100 µM (inactive)	55.3 µM (inactive)	27 µM (inactive)	36.1 µM (inactive)	–	–	–
CCc1cc2c(Nc3ccccc3)c3c(nc2s1)CCCC3	25.8 µM (inactive)	20.9 µM (inactive)	> 100 µM (inactive)	> 100 µM (inactive)	38.8	> 100 µM (inactive)	79.4 µM (inactive)	3.41 µM (inactive)	3.23 µM (inactive)	> 100 µM (inactive)	6.56 µM (inactive)	28.8 µM (inactive)	> 100 µM (inactive)	> 100 µM (inactive)	> 100 µM (inactive)	–	4.79 µM (inactive)	–	–	–
CCCC1=C(CC)C(C(=O)Nc2c(C)cccc2C)=NC(S)N1 (stereo not given)	> 100 µM (inactive)	> 100 µM (inactive)	> 100 µM (inactive)	–	> 100	> 100 µM (inactive)	> 100 µM (inactive)	> 100 µM (inactive)	> 100 µM (inactive)	> 100 µM (inactive)	> 100 µM (inactive)	> 100 µM (inactive)	> 100 µM (inactive)	> 100 µM (inactive)	> 100 µM (inactive)	> 100 µM (inactive)	> 100 µM (inactive)	–	–	–
O=C(CC1SC(Nc2ccccc2Cl)=NC1=O)Nc1ccc(Cl)cc1Cl (stereo not given)	–	> 100 µM (inactive)	> 100 µM (inactive)	> 100 µM (inactive)	–	> 100 µM (inactive)	> 100 µM (inactive)	–	> 100 µM (inactive)	> 100 µM (inactive)	> 100 µM (inactive)	> 100 µM (inactive)	> 100 µM (inactive)	> 100 µM (inactive)	> 100 µM (inactive)	–	> 100 µM (inactive)	–	–	–
O=C(N/N=C/c1ccccc1O)c1cccc([N+](=O)[O-])c1	76.7 µM (inactive)	3.03 µM (inactive)	20.9 µM (inactive)	30.5 µM (inactive)	6.59	28.5 µM (inactive)	–	22.4 µM (inactive)	3.1 µM (inactive)	30.8 µM (inactive)	1.71 µM (inactive)	19.7 µM (inactive)	21.1 µM (inactive)	30.9 µM (inactive)	9.48 µM (inactive)	32.7 µM (inactive)	9.98 µM (inactive)	–	–	–
Cc1ccccc1C(=O)Oc1ccc(Oc2ccccc2)cc1	77.6 µM (inactive)	42.7 µM (inactive)	> 100 µM (inactive)	86.1 µM (inactive)	> 100	> 100 µM (inactive)	> 100 µM (inactive)	> 100 µM (inactive)	67 µM (inactive)	> 100 µM (inactive)	> 100 µM (inactive)	> 100 µM (inactive)	> 100 µM (inactive)	78.2 µM (inactive)	> 100 µM (inactive)	–	> 100 µM (inactive)	–	–	–
COc1ccc(C2N3CCCCC3[C@@H]3c4[nH]c5ccccc5c4CCN23)c(OC)c1 (stereo not given in full)	15.5 µM (inactive)	26.9 µM (inactive)	18.2 µM (inactive)	–	28	> 100 µM (inactive)	84.7 µM (inactive)	26.7 µM (inactive)	21 µM (inactive)	–	24.6 µM (inactive)	42.3 µM (inactive)	18 µM (inactive)	25.2 µM (inactive)	26.2 µM (inactive)	–	16.3 µM (inactive)	–	–	–
CN(C)CC1CCCCCCCCCCCCC(CN(C)C)C1=O (stereo not given)	18.7 µM (inactive)	–	14 µM (inactive)	10.2 µM (inactive)	18.7	16.2 µM (inactive)	16.4 µM (inactive)	–	2.09 µM (inactive)	15.7 µM (inactive)	16.8 µM (inactive)	15.8 µM (inactive)	15.2 µM (inactive)	14.7 µM (inactive)	16.3 µM (inactive)	–	14.5 µM (inactive)	–	–	–
CSc1nc(NC2OCC(OC(C)=O)C(OC(C)=O)C2OC(C)=O)c(/N=C(\C)C(C)=O)c(=O)n1C (stereo not given)	> 100 µM (inactive)	> 100 µM (inactive)	> 100 µM (inactive)	> 100 µM (inactive)	> 100	> 100 µM (inactive)	> 100 µM (inactive)	> 100 µM (inactive)	> 100 µM (inactive)	> 100 µM (inactive)	> 100 µM (inactive)	> 100 µM (inactive)	> 100 µM (inactive)	> 100 µM (inactive)	> 100 µM (inactive)	–	> 100 µM (inactive)	–	–	–
COC(=O)C12CC3CC(C1)CC(C(=O)OC)(C3)C2	> 100 µM (inactive)	> 100 µM (inactive)	–	> 100 µM (inactive)	> 100	> 100 µM (inactive)	> 100 µM (inactive)	–	> 100 µM (inactive)	–	> 100 µM (inactive)	> 100 µM (inactive)	> 100 µM (inactive)	> 100 µM (inactive)	> 100 µM (inactive)	> 100 µM (inactive)	> 100 µM (inactive)	–	–	–
O=C1OC(c2ccccc2)=N/C1=C\c1cc(Cl)ccc1Cl	> 100 µM (inactive)	23.9 µM (inactive)	> 100 µM (inactive)	> 100 µM (inactive)	16.4	> 100 µM (inactive)	> 100 µM (inactive)	18.1 µM (inactive)	23 µM (inactive)	> 100 µM (inactive)	–	> 100 µM (inactive)	80.2 µM (inactive)	–	> 100 µM (inactive)	> 100 µM (inactive)	> 100 µM (inactive)	–	–	–
COc1cccc(C2c3cc4c(cc3OC(Nc3ccccc3)C2C)OCO4)c1O (stereo not given)	7.82 µM (inactive)	2.58 µM (inactive)	4.3 µM (inactive)	11.7 µM (inactive)	5.62	–	12.9 µM (inactive)	2.83 µM (inactive)	3.3 µM (inactive)	7.24 µM (inactive)	9.18 µM (inactive)	5.25 µM (inactive)	8.83 µM (inactive)	15.8 µM (inactive)	10.9 µM (inactive)	4.4 µM (inactive)	5.12 µM (inactive)	6.68 µM (inactive)	2.42 µM (inactive)	7.5 µM (inactive)
